# System: RFL-6 rat fetal lung fibroblast cells
# Test: cGMP assay, RFL-6 cells as detectors of EDRF/NO
# Type: cell-based
# Conditions: presence of superoxide dismutase; 6-well plates
# Description: In those instances where it is suspected that the test substance is acting as a substrate rather than an inhibitor, the EDRF/NO may be estimated. For this confirmation bioassay, a method for quantification of endothelium-derived relaxing factor (EDRF) is utilized and is described in detail below. This technique, measuring cyclic GMP responses of RFL-6 rat fetal lung fibroblast cells to estimate NO or EDRF is sensitive, simple and quite useful for the evaluation of compounds that regulate EDRF/NO release from various endothelial cells, or other cells or tissues (such as for example RAW cells (induced with LPS) and N1E-115 cells). (cf. Ishii, K., et al., American Journal of Physiology, 1991,261:(2 pt 2) H598-603). The cyclic GMP measured is an indirect measure of the amount of EDRF/NO produced by NO synthase, so compounds that reduce the amount of cyclic GMP produced are termed inhibitors of NO synthase, and those that increase cyclic GMP in the absence of exogenous L-arginine are termed substrates or stimulators of NO synthase.
# This is a new bioassay method for detection and quantification of endothelium-derived relaxing factor (EDRF) wherein cyclic GMP responses of RFL-6 rat fetal lung fibroblast cells are utilized to estimate the activity of nitric oxide (NO) and EDRF. […]
substance,measurement,value
nitric oxide [NO],lowest concentration of NO to which RFL-6 cells responded,2 nM

# From patent US5478946A, “Guanidino compounds as regulators of nitric oxide synthase” (Abbott Laboratories, priority 1993, dated 1995)
